This note sets out measurements from PubChem BioAssay (NCI).

Experiment in all cases: NCI anticancer screen, dose series, 48 h
Assay [1] has as its system A498 renal.
Assay [2] has as its system EKVX NSCLC.
The test system of assay [3] is HOP-62 NSCLC.
The test system of assay [4] is K-562 leukemia.
In assay [5] the test system is MALME-3M melanoma.
For assay [6], the system named is MCF7 breast.
In assay [7] the test system is NCI-H23 lung.
Assay [8] concerns NCI-H522 lung.
Assay [9] deals with OVCAR-4 ovarian.
The subject of assay [10] is RXF 393 renal.
Assay [11] deals with SF-295 CNS.
Assay [12] has as its system SK-OV-3 ovarian.
In assay [13] the test system is SN12C renal.
Assay [14] deals with SNB-19 CNS.
In assay [15] the test system is T-47D breast.
Assay [16] relates to UACC-257 melanoma.
Assay [17] deals with UO-31 renal.

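Grown in 96-well plates, cells were treated for 48 hours with each compound at five concentrations. Insufficient inhibition: endpoint recorded as highest concentration tested. TGI denotes the concentration required for complete inhibition of growth.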 A value given as a limit tells only on which side of the number the result lay.

As to `OC(C/C=N/Nc1ccccc1)(C(F)(F)Cl)C(F)(F)Cl`, the TGI in assay [1], in assay [2], in assay [3], in assay [4], in [5] and in assay [6] was more than 10 µM each time. Besides, the TGI in assay [7], in assay [8], in assay [9], in [10], in assay [11] and in assay [12] was more than 10 µM in each case. Further, the TGI in [13], in assay [14], in assay [15], in assay [16] and in assay [17] was more than 10 µM throughout.
In the case of `CCOC(=O)c1c(N2CCCC2)[nH]c(=O)c(C(c2cccs2)c2c(O)c(C(=O)OCC)c(N3CCCC3)[nH]c2=O)c1O`, the TGI in [1], in assay [2], in assay [3], in assay [4], in assay [5] and in [6] was more than 100 µM throughout. Further, the TGI in [7], in assay [8], in assay [9], in assay [10], in [11] and in assay [12] was more than 100 µM each time. Moreover, the TGI in [13], in assay [14], in assay [15], in assay [16] and in assay [17] was more than 100 µM throughout.
As to `COC(=O)c1ccc(NCc2cc(O)ccc2O)cc1`, the TGI was determined as 29.7 µM in assay [1]; 37.1 µM in assay [2]; 30.9 µM in assay [3]; 15.1 µM in assay [4]; 15.7 µM in assay [5]; 27.3 µM in [6]. Besides, the TGI turned out to be 32.9 µM in assay [7]; 2.06 µM in [8]; 30.5 µM in assay [9]; 20.2 µM in [10]; 35 µM in assay [11]; 48.8 µM in assay [12]. The TGI is 41.2 µM in [13]; 70.5 µM in assay [14]; 3.4 µM in [15]; 29.2 µM in assay [16]; 26.3 µM in assay [17].
For the molecule `CCOC(=O)/C(C#N)=C/c1ccc2c(c1)CC1(C2)Cc2cc(CC)c(C(C)O)cc2C1` (configuration not stated), the TGI in assay [1] is more than 90.4 µM; in assay [2], more than 100 µM; in [3] it was 36 µM; in [4], more than 52.5 µM; in [5], 24.4 µM; in assay [6], 23.9 µM. Also, the TGI in assay [7] was 39.5 µM; in assay [8] it was more than 100 µM; in [9], 49 µM; in assay [10], 38.5 µM; in [11], 44.3 µM; in assay [12], 98.2 µM. Moreover, the TGI is 32.4 µM in [13]; 43.8 µM in assay [14]; more than 100 µM in assay [15]; 45.6 µM in assay [16]; 60.8 µM in assay [17].
As for `CCN(CC)CCO/N=C1/C=C2CCC3C(CC[C@@]4(C)C3CC[C@]4(C)O)[C@@]2(C)CC1` (some centres not stated), the TGI turned out to be 0.878 µM in [1]; 42.9 µM in assay [2]; 21 µM in assay [3]; 18.9 µM in [4]; 15.6 µM in assay [5]; 80.1 µM in assay [6]. Besides, the TGI is 29 µM in assay [7]; 6.07 µM in assay [8]; more than 100 µM in [9]; 72.2 µM in assay [10]; 8.29 µM in assay [11]; 46.4 µM in assay [12]. The TGI in [13] was 16.3 µM; in [14], 45.4 µM; in [15], 68 µM; in assay [16] it was 18.2 µM; in assay [17], 18.9 µM.
As for `Cc1cc2c(cc1Cl)SC(NNc1ccc([N+](=O)[O-])cc1)=NS2(=O)=O`, the TGI in [1], in assay [2], in [3], in [4], in assay [5] and in assay [6] was more than 10 µM in each case. Also, the TGI in [7], in [8], in assay [9], in assay [10], in assay [11] and in [12] was more than 10 µM each time. The TGI in assay [13], in assay [14], in assay [15], in assay [16] and in assay [17] was more than 10 µM in each case.
Consider `Cc1c(C)c(S(=O)(=O)N(CCCCCON)OCCCN)c(C)c2c1OC(C)(C)CC2`, for which the TGI in assay [1] is 28.3 µM; in assay [2] it was 24.7 µM; in [3] it was 31.8 µM; in [4] it was more than 40.3 µM; in assay [5], 27.4 µM; in assay [6] it was 21.8 µM. Also, the TGI in [7] stood at 29.6 µM; in [8], 31.6 µM; in assay [9], 21.5 µM; in [10], 25.1 µM; in assay [11], 29.3 µM; in assay [12] it was 28.1 µM. Besides, the TGI in assay [13] amounted to 32.4 µM; in assay [14], 28.9 µM; in [15] it was 16.8 µM; in [16], 29.5 µM; in assay [17], 30.2 µM.
With `COC(=O)c1c(-c2ccccc2)c2sc3ccccc3n2c1N`, the TGI is 91.1 µM in assay [1]; more than 100 µM in assay [2]; more than 100 µM in [3]; more than 100 µM in assay [4]; 68.1 µM in assay [5]; more than 100 µM in assay [6]. The TGI was more than 100 µM in assay [7]; 73.2 µM in [8]; more than 100 µM in assay [9]; 55.1 µM in assay [10]; more than 100 µM in [11]; more than 100 µM in [12]. The TGI is 96.1 µM in assay [13]; more than 100 µM in assay [14]; 87.5 µM in assay [15]; more than 100 µM in [16]; more than 100 µM in [17].
`C=C(C)C12CC3CC/C(=N/O)C(C1)C3(N1CCOCC1)C/C2=N/O` (configuration not stated): the TGI in assay [1], in assay [2], in assay [3], in assay [4], in [5] and in [6] was more than 100 µM throughout. Besides, the TGI in assay [7], in assay [8], in assay [9], in assay [10], in assay [11] and in assay [12] was more than 100 µM each time. In addition, the TGI in assay [13], in [14], in assay [15], in assay [16] and in [17] was more than 100 µM each time.
`CC1=NN=C(N)NC1=CC(Sc1ccc(Cl)cc1)c1c(O)ccc2ccccc12` (configuration not stated): the TGI was 37.5 µM in [1]; 69 µM in assay [2]; 57.7 µM in assay [3]; more than 100 µM in assay [4]; 20.4 µM in assay [5]; 73.9 µM in [6]. The TGI in assay [7] was 51.6 µM; in [8] it was 41.8 µM; in assay [9], more than 64.7 µM; in [10], 20.3 µM; in assay [11], more than 57.7 µM; in assay [12], 67.4 µM. For the same molecule, the TGI in [13] was 97.3 µM; in assay [14], more than 74.9 µM; in assay [15] it was 58.9 µM; in assay [16], more than 87.1 µM; in assay [17] it was more than 67.6 µM.
For the molecule `CN(C)CC1CN=C(NC(=O)Nc2ccccc2)O1` (configuration not stated), the TGI in assay [1], in [2], in assay [3], in assay [4], in assay [5] and in assay [6] was more than 100 µM each time. Besides, the TGI in assay [7], in assay [8], in assay [9], in [10], in assay [11] and in assay [12] was more than 100 µM each time. The TGI in assay [13], in [14], in assay [15], in [16] and in assay [17] was more than 100 µM each time.
On to `Cn1c2ccccc2c(=O)c2[nH]c3ccccc3c21`, for which the TGI in assay [1], in assay [2], in assay [3], in assay [4], in [5] and in assay [6] was more than 100 µM in each case. In addition, the TGI in assay [7], in assay [8], in assay [9], in assay [10], in [11] and in [12] was more than 100 µM in each case. Also, the TGI in [13], in assay [14], in assay [15], in assay [16] and in assay [17] was more than 100 µM throughout.
Consider `NC(=O)c1cccc([C@@H]2O[C@H](CO)[C@@H](O)[C@H]2O)c1`, for which the TGI was more than 100 µM in assay [1]; more than 100 µM in assay [2]; 28 µM in [3]; 41.3 µM in [4]; more than 100 µM in [5]; more than 100 µM in [6]. Besides, the TGI amounted to 35.4 µM in assay [7]; 10.2 µM in assay [8]; 19.7 µM in [9]; 34.6 µM in [10]; 28.7 µM in assay [11]; 35.7 µM in assay [12]. Also, the TGI in assay [13] is 80 µM; in assay [14], 34.3 µM; in assay [15], more than 66.6 µM; in assay [16], more than 100 µM; in [17], 15.7 µM.
As for `O=C1c2ccccc2C(=O)c2oc(Br)cc21`, the TGI in assay [1] was 3.49 µM; in assay [2], 4.07 µM; in assay [3] it was 4.05 µM; in [4], 4.77 µM; in [5], 0.274 µM; in assay [6], 1.96 µM. For the same molecule, the TGI came out at 0.463 µM in [7]; 3.04 µM in [8]; 3.55 µM in assay [9]; 2.87 µM in assay [10]; 1.03 µM in assay [11]; 6.61 µM in assay [12]. Also, the TGI in [13] amounted to 2.22 µM; in [14] it was 2.87 µM; in [15], 3.6 µM; in [16] it was 0.784 µM; in [17] it was 2.85 µM.
Regarding `N#CC(C#N)=Cn1c(=S)[nH]c2ccccc21`, the TGI in assay [1], in [2], in [3], in assay [4], in assay [5] and in assay [6] was more than 100 µM each time. The TGI in assay [7], in assay [8], in assay [9], in [10], in assay [11] and in assay [12] was more than 100 µM in each case. In addition, the TGI in assay [13], in [14], in assay [15], in [16] and in assay [17] was more than 100 µM throughout.
On to `COc1ccc(C(=O)Nc2ccc3oc(-c4ccccc4)nc3c2)cc1`, for which the TGI in assay [1], in assay [2], in [3], in assay [4], in assay [5] and in assay [6] was more than 100 µM in each case. Moreover, the TGI in assay [7], in [8], in [9], in assay [10], in assay [11] and in [12] was more than 100 µM each time. Further, the TGI is more than 100 µM in [13]; more than 100 µM in [14]; more than 100 µM in assay [15]; more than 100 µM in [16]; 0.838 µM in assay [17].
